Results published in ChEMBL document CHEMBL3297712, “Chasing protons: how isothermal titration calorimetry, mutagenesis, and pKa calculations trace the locus of charge in ligand binding to a tRNA-binding enzyme” (J Med Chem, 2014).

Legend:
[1] = Binding affinity to wild-type Zymomonas mobilis TGT overexpressed in Escherichia coli BL21(DE3) by isothermal titration calorimetric analysis
[2] = Binding affinity to Zymomonas mobilis TGT E235Q mutant overexpressed in Escherichia coli BL21(DE3) by isothermal titration calorimetric analysis
[3] = Binding affinity to Zymomonas mobilis TGT D102N mutant overexpressed in Escherichia coli BL21(DE3) by isothermal titration calorimetric analysis
[4] = Binding affinity to Zymomonas mobilis TGT D156N mutant expressed in Escherichia coli Rosetta 2(DE3) by isothermal titration calorimetric analysis
Zymomonas mobilis [5] = test: Selectivity ratio of Kd for Zymomonas mobilis TGT D156N mutant to Kd for wild-type Zymomonas mobilis TGT
Zymomonas mobilis [6] = test: Selectivity ratio of Kd for Zymomonas mobilis TGT D102N mutant to Kd for wild-type Zymomonas mobilis TGT

SMILES	Kd [1]	Kd [2]	Kd [3]	Kd [4]	Selectivity ratio (Zymomonas mobilis [5])	Selectivity ratio (Zymomonas mobilis [6])
Cc1nc2cc3nc(N)[nH]c(=O)c3cc2[nH]1	288 nM	–	–	–	–	–
CNc1nc2cc3c(=O)[nH]cnc3cc2[nH]1	411 nM	–	–	–	–	–
Nc1nc2cc3[nH]c(NCCN4CCOCC4)nc3cc2c(=O)[nH]1	35 nM	1280 nM	–	–	–	–
CNc1nc2cc3c(=O)[nH]c(N)nc3cc2[nH]1	52.4 nM	–	146 nM	188 nM	4	3
